Consider two compounds from patent US10472341B2, “Bicyclic tetrahydrothiazepine derivatives useful for the treatment of neoplastic and/or infectious diseases” (APEIRON BIOLOGICS AG, priority 2015, dated 2019).

Each structure is given as a SMILES string. Where a name gives a salt, the structure may show the parent alone.

One test deals with OT-II cells. The test can be described thus: OT-II transfer model, oral administration: antigen-specific T cell proliferation and CD69. The class given is in vivo, mouse. The following applies: mice. On the procedure: • Single cell suspension of splenocytes was prepared from the spleen by rinsing cells through a sterile 70 μm filter with PBS • Cells were collected by centrifugation in an 15 ml tube, the cell pellet was resuspended in 1 ml of Erylyse buffer and incubated at room temperature for 5 minutes, tubes were filled up with PBS and cells were washed twice • Cells were counted and resuspended in the desired buffer volume for MACS-enrichment or flow cytometric analysis Isolation of CD4 T Cells from OT-II Transgenic Mice • Splenocytes were resuspended in MACS buffer ([…] MACS-buffer/10^7 cells) • CD4 T cells were isolated using the CD4 T cell isolation kit (Miltenyi) with LS-columns following manufacturer's recommendations CFSE-Labeling of T Cells • Cells were resuspended in PBS with 0.1% BSA at 1×10^7 cells/ml and CFSE-solution was added to final concentration of 2.5 μM CFSE • Incubated for 10 min at 37° C., swung each 2 min • Same volume of FCS added and incubated for 5 min at room temperature • Cells were washed twice with RMPI-10% FCS medium • Cells were counted and resuspended in PBS or medium at desired concentration OT-II Transfer • Day 0: OT-II cells were transferred in PBS (3*10^6. Cells in 100 μl PBS) by retro-orbital injection • Day 1: WT mice got OVA vaccinated (subcut. flank, 10 μg LPS, 2 μg OVA per animal) • 2 & 4 h later compounds were administrated; for oral dosing compound was used as suspension (0.5% methylcellulose in water), for i.v. dosing compound was solubilized in DMSO and diluted with PBS • Day 2: compounds were administrated twice in the morning (with 2 h time interval) • Day 3: Mice were sacrificed & splenocytes were isolated • T cell proliferation & phenotype was determined by flow cytometry • Flow cytometry-Staining (all Abs purchased from eBioscience and used as recommended by the manufacturer): B220-eF450, CD4-PE, CD25PerCPCy5.5, CD69-PC7, TCRVa2-APC, CD8-AF700, CD3-eF780; CFSE; 7-AAD • Acquisition on Beckman-Coulter Gallios, Analysis using Kaluza Software OT-I Transfer to Mice with B16-F10-OVA Tumors • Day 0: 100000 B16-F10-OVA tumor cells were inoculated subcutaneously at the flank of WT-mice • Day 7: OT-I cells were transferred in PBS (3*10^6. […]

For another test, the system named is NK cells. The test can be described thus: NK cell stimulation by IL-2: IFN-gamma and TNF-alpha release. In kind it is cell-based, human. To be noted: for IFN-gamma / TNF-alpha: IL-2 stimulation. On the procedure: Isolated NK cells were plated in Xvivo medium at 1.5*10^5 cells per in 96 well culture plates and stimulated with 50 ng/ml IL-2 (Aldesleukin) where indicated. Cytokine secretion was determined by ELISA, immune cell activation by flow cytometry (Beckman-Coulter Abs CD25-PC5, CD69-PC7 and acquisition on Beckman-Coulter Gallios) using 7-AAD exclusion as criterion for living cells. IL-2 is a key factor for survival, proliferation and activation of NK cells, thus linking adaptive immunity mediated by T cells with the innate immunity mediated by NK cells. Especially CD8 T cells release IL-2 locally at the site of antigen-encounter in the tumor, and thus support and activate NK cell anti-tumor functions. Compound example 67 has been chosen as an example. […] Thus, compounds have a unique potential to support the interlinked anti-tumor immunity of T and NK cells in the physiological context in vivo.

Regarding `N[C@H]1CS(=O)(=O)c2cc(F)c(C(=O)NC3CC3(F)F)cc2N(Cc2ccc(Cl)cc2)C1=O` (stereo partly drawn) [Example 1, (3R)-3-amino-5-[(4-chlorophenyl)methyl]-N-(2,2-difluorocyclopropyl)-8-fluoro-1,1,4-trioxo-2,3,4,5-tetrahydro-1λ^6,5-benzothiazepine-7-carboxamide hydrochloride], in the test with OT-II cells (LPS & OVA vaccination, 10 mg/kg dosed orally, splenocytes day 3), the “Proliferated OT-II cells [% gated] average” value is listed as 29.03 % gated. Moreover, in the test with OT-II cells (LPS & OVA, 10 mg/kg orally), the “CD69 on transferred OT-II cells” value is reported as “CD69 was not further upregulated”. For the same compound, the “Proliferation of OT-II cells” value in the test with OT-II cells (LPS & OVA, 10 mg/kg orally, versus no compound) was “highly significantly (p<0.00001) enhanced”.
Regarding `CCCCNC(=O)c1ccc2c(c1)N(Cc1ccc(OC(F)(F)F)cc1)C(=O)[C@@H](N)CS2(=O)=O.Cl` [Example 67, (3R)-3-amino-N-butyl-1,1,4-trioxo-5-{[4-(trifluoromethoxy)phenyl]methyl}-2,3,4,5-tetrahydro-1λ^6,5-benzothiazepine-7-carboxamide hydrochloride], the IFN-gamma is 0.71 ng/mL with NK cells (0.03 μM); 0.72 ng/mL in the test on NK cells (0.1 μM); 1.00 ng/mL with NK cells (0.3 μM); 1.23 ng/mL in the test with NK cells (1 μM); 1.50 ng/mL in the test with NK cells (3 μM); 1.40 ng/mL with NK cells (10 μM). Also, the IFN-gamma in the test with NK cells (30 μM) worked out at 1.22 ng/mL. The TNF-alpha came out at 0.04 ng/mL with NK cells (0.03 μM); 0.03 ng/mL in the test on NK cells (0.1 μM); 0.06 ng/mL in the test on NK cells (0.3 μM); 0.09 ng/mL in the test with NK cells (1 μM); 0.10 ng/mL in the test on NK cells (3 μM); 0.12 ng/mL in the test with NK cells (10 μM). This compound also showed a TNF-alpha in the test on NK cells (30 μM) of 0.14 ng/mL. The “responsiveness of NK cells upon IL-2 activation (release of IFN-gamma and TNF-alpha)” value in the test with NK cells (NK cells, IL-2) is given as “can directly enhance the responsiveness of NK cells upon IL-2 activation”.
